Reference: patent publication EP0987250A1, “INDOLE DICARBOXYLIC ACID DERIVATIVES” (SHIONOGI & CO., LTD., priority 1997, dated 1998)

Key:
[1] = Evaluation of solubility in water; assay type: physicochemical; conditions: thermodynamic from solid; Na salt: monosodium salt of 10 and 21, disodium salt (20) of 11; water added dropwise by 10 µl; corrected for mg in 1 ml at 23°C
Experimental: A solution of 10.3 mg (24.3 µmol) of compound (11) in 4.85 ml (48.6 µmol) of a 0.01 M methanolic solution of sodium methylate was filtered through a Millipore filter and then concentrated. The resulting residue was dried under reduced pressure to obtain disodium salt (20).

[2] = molecular target: T1, human sPLA2 (Homo sapiens, UniProt P14555); experiment: In vitro test for sPLA2-inhibitory action by PC/DOC method; assay type: biochemical; conditions: PC/DOC = 1 mM/3 mM; Tris buffer 50 mM, pH 8.0; 40°C for 30 minutes; oleic acid measured by HPLC
T1 sequence (P14555 21-144): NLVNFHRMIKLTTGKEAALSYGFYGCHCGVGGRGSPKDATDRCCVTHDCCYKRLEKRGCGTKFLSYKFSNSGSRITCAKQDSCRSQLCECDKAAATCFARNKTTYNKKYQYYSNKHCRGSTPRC
Experimental: A 50 mM solution of 1-palmitoyl-1-oleoyl-sn-glycero-3-phosphatidylcholine in chloroform (PC) was used as a substrate. A 150 mM solution of sodium deoxycholate in methanol (DOC) was used as a surface-active agent
First, the substrate and the surface-active agent were transferred into an Eppendorf tube and the solvent was evaporated by applying a nitrogen stream. Then, the tube was placed in a desiccator and evacuated with a pump to complete dryness. Thereto was added water in an amount to be used for the assay and the solution was stirred for 1 minute. The final concentrations were adjusted so as to make PC/DOC = 1 mM/3 mM.
As the buffer solution for measurement was prepared a Tris buffer solution (50 mM, pH 8.0) containing 150 mM sodium chloride, calcium chloride (10 mM), and bovine serum albumin (1 mg/ml).
To a test compound solution were added the substrate solution and the buffer solution for measurement prepared as described above and the resulting mixture was stirred to mix. […] HPLC analysis was carried out under the following analysis conditions: Column: Supersphere ^R60 RP-8 (Merck & Co.) Mobile: Phase: Acetonitrile : Distilled water (93:7) Detection: Absorbance at 254 nm
The inhibitory activity of the compound was calculated from the amount of oleic acid thus-measured.

Compound | solubility [1] | IC50 [2]
CCc1c(C(=O)C(N)=O)c2c(OCC(=O)O)cccc2n1Cc1ccccc1 [Compound 21, reference compound] | 1.4 mg/mL | –
CCc1c(C(=O)C(N)=O)c2c(OCC(=O)O)cc(C(=O)O)cc2n1Cc1ccccc1 [Compound 11, 1-Benzyl-6-carboxy-4-carboxymethyloxy-2-ethyl-3-oxamoyl-1H-indole] | 228 mg/mL | 43.8 nM
CCc1c(C(=O)C(N)=O)c2c(OCC(=O)O)cc(C(=O)OC)cc2n1Cc1ccccc1 [compound 10] | 68 mg/mL | 1.7 nM
